Source: patent US20250177566A1, “USE OF CHEMICAL EPIGENETIC MODIFIERS TO MODULATE GENE EXPRESSION” (The University of North Carolina at Chapel Hill, priority 2022, published 2025)

How the values were obtained:
TRE3G-GFP reporter gene = TRE3G-GFP reporter gene activation in HCT116, dCas9 + MS2-FKBP*x2 (F36V) system, flow cytometry; assay type: cell-based, human; set-up: fold change, GFP: reference not given here; conditions: FIG. 5A, 10 nM, 48 hrs
CXCR4 = CXCR4 mRNA activation in HCT116 stably expressing dCas9 and MS2-FKBP*x2, qRT-PCR; assay type: cell-based, human; conditions: FIG. 2C; 5 nM; 48 hrs
Experimental: To further explore the activation potential of the SLF*-CEMa, their ability to target endogenous genes was evaluated (FIGS. 2A and 2B). Lentivirus was used to establish a stable HCT116 cell line expressing dCas9 and MS2-FKBP*x2 constructs, selecting for cells with antibiotic resistance. […] All CEMs were screened for their ability to activate the CXCR4 gene at 5 nM (FIG. 2C). RNA extraction and quantitative RT-PCR (qRT-PCR) were performed after 48 hours of CEM treatment.
To determine the optimal treatment concentration of the SLF*-CEMa molecules in this context, HCT116 cells were treated with 1 nM, 5 nM, 25 nM, and 50 nM of CEM203, CEM207, or CEM87. […] After 48 hours, RNA extraction followed by qRT-PCR was performed to evaluate the change in mRNA expression of CXCR4 (FIG. 2D). […] To directly compare this induced activation to other CRISPR-Cas9-based epigenetic activators, dCas9-VPR and dCas9-p300 constructs were virally infected into HCT116 cells and CXCR4 activation assessed in a similar fashion (FIGS. 2A and 2B).
To determine the time at which SLF*-CEMa most effectively induces gene activation, CXCR4 gene expression changes over time were investigated in dCas9 and MS2-FKBP*x2 stably infected HCT116 cells. Cells were treated with either vehicle, […] (FIG. 3A). RNA extraction and qRT-PCR were performed at 12, 24, 48, 72, and 96 hrs time points (FIG. 3B).
To investigate if endogenous gene activation triggered by the SLF*-CEMa compounds is also reversible, HCT116 cells were treated with CEM203 (50 nM) or CEM207 (25 nM) for 24 hours after transfecting CXCR4 gRNA, and then the CEMs were removed by media exchange at various time points. […] Likewise, it was investigated whether treatment with excess AP1867 could further reverse gene activation, potentially in a more robust fashion than with washout alone if there is any remaining intracellular SLF*-CEMa. To test this, after 24 hours of SLF*-CEMa treatment, a media exchange containing 20 μM AP1867 was performed (FIGS. 3C and 3D).
RNA extraction and qRT-PCR. All RNA extraction experiments were conducted in 12-well plate format. Culturing medium was removed, and cells were washed with 1×PBS, following with 0.05% trypsin to disassociate. After being quenched by medium and centrifuged, cells were washed with 1×PBS, and the RNA extraction was performed by using RNeasy Plus Mini kit (Qiagen, 74134). RT-qPCR was conducted by using RNA-to CT 1-step kit (Thermo Fisher Scientific, 4389986). The primer sets used in quantifying each gene can be found in Table 4.

Structure (SMILES) | fold change, GFP (TRE3G-GFP reporter gene; NT gRNA) | fold change, GFP (TRE3G-GFP reporter gene; TRE3G gRNA) | fold change, CXCR4 mRNA (Treated vs Non-Treated) (CXCR4)
CC[C@H](C(=O)N1CCCC[C@H]1C(=O)O[C@H](CCc1ccc(OC)c(OC)c1)c1cccc(OCC(=O)NCCOCCOCCOCCNC(=O)C[C@@H]2N=C(c3ccc(Cl)cc3)c3c(sc(C)c3C)-n3c(C)nnc32)c1)c1cc(OC)c(OC)c(OC)c1 [CEM208, (R)-1-(3-((17-((S)-4-(4-Chlorophenyl)-2,3,9-trimethyl-6H-thieno[3,2-f][1,2,4]triazolo[4,3-a][1,4]diazepin-6-yl)-2,16-dioxo-6,9,12-trioxa-3,15-diazaheptadecyl)oxy)phenyl)-3-(3,4-dimethoxyphenyl) propyl(S)-1-((S)-2-(3,4,5-trimethoxyphenyl)butanoyl) piperidine-2-carboxylate] | 0.4 fold | 8.1 fold | 11.5 fold
CC[C@H](C(=O)N1CCCC[C@H]1C(=O)O[C@H](CCc1ccc(OC)c(OC)c1)c1cccc(OCC(=O)NCCOCCOCCOCCOCCNC(=O)C[C@@H]2N=C(c3ccc(Cl)cc3)c3c(sc(C)c3C)-n3c(C)nnc32)c1)c1cc(OC)c(OC)c(OC)c1 [CEM209, (R)-1-(3-((20-((S)-4-(4-Chlorophenyl)-2,3,9-trimethyl-6H-thieno[3,2-f][1,2,4]triazolo[4,3-a][1,4]diazepin-6-yl)-2,19-dioxo-6,9,12,15-tetraoxa-3,18-diazaicosyl)oxy)phenyl)-3-(3,4-dimethoxyphenyl) propyl(S)-1-((S)-2-(3,4,5-trimethoxyphenyl)butanoyl) piperidine-2-carboxylate] | 0.5 fold | 4.3 fold | 11.1 fold
CC[C@H](C(=O)N1CCCC[C@H]1C(=O)O[C@H](CCc1ccc(OC)c(OC)c1)c1cccc(OCC(=O)NCCOCCOCCOCCOCCOCCNC(=O)C[C@@H]2N=C(c3ccc(Cl)cc3)c3c(sc(C)c3C)-n3c(C)nnc32)c1)c1cc(OC)c(OC)c(OC)c1 [CEM210, (R)-1-(3-((23-((S)-4-(4-Chlorophenyl)-2,3,9-trimethyl-6H-thieno[3,2-f][1,2,4]triazolo[4,3-a][1,4]diazepin-6-yl)-2,22-dioxo-6,9,12,15,18-pentaoxa-3,21-diazatricosyl)oxy)phenyl)-3-(3,4-dimethoxyphenyl) propyl(S)-1-((S)-2-(3,4,5-trimethoxyphenyl)butanoyl) piperidine-2-carboxylate] | 0.4 fold | 8.5 fold | 12.0 fold
CC[C@H](C(=O)N1CCCC[C@H]1C(=O)O[C@H](CCc1ccc(OC)c(OC)c1)c1cccc(OCC(=O)NCCOCCOCCOCCOCCOCCOCCNC(=O)C[C@@H]2N=C(c3ccc(Cl)cc3)c3c(sc(C)c3C)-n3c(C)nnc32)c1)c1cc(OC)c(OC)c(OC)c1 [CEM211, (R)-1-(3-((26-((S)-4-(4-Chlorophenyl)-2,3,9-trimethyl-6H-thieno[3,2-f][1,2,4]triazolo[4,3-a][1,4]diazepin-6-yl)-2,25-dioxo-6,9,12,15,18,21-hexaoxa-3,24-diazahexacosyl)oxy)phenyl)-3-(3,4-dimethoxyphenyl) propyl(S)-1-((S)-2-(3,4,5-trimethoxyphenyl)butanoyl) piperidine-2-carboxylate] | 0.4 fold | 7.8 fold | 8.5 fold
CC[C@H](C(=O)N1CCCC[C@H]1C(=O)O[C@H](CCc1ccc(OC)c(OC)c1)c1cccc(OCC(=O)NCCOCCOCCOCCOCCOCCOCCOCCNC(=O)C[C@@H]2N=C(c3ccc(Cl)cc3)c3c(sc(C)c3C)-n3c(C)nnc32)c1)c1cc(OC)c(OC)c(OC)c1 [CEM212, (R)-1-(3-((29-((S)-4-(4-Chlorophenyl)-2,3,9-trimethyl-6H-thieno[3,2-f][1,2,4]triazolo[4,3-a][1,4]diazepin-6-yl)-2,28-dioxo-6,9,12,15,18,21,24-heptaoxa-3,27-diazanonacosyl)oxy)phenyl)-3-(3,4-dimethoxyphenyl) propyl(S)-1-((S)-2-(3,4,5-trimethoxyphenyl)butanoyl) piperidine-2-carboxylate] | 0.4 fold | 6.1 fold | 12.6 fold
